Values joined by “and” are separate entries in the source; they are usually repeats but may differ in a detail not shown here. Equal values may be shown once. Numbered stars: 1 amine (or outer) side, 2 acyl side, 3 side chain; on linkers, the order of the positions; unused ones are H or OH. Square brackets hold non-standard residues; d marks the D form. Peptide text beside a SMILES is read from it. * marks the point of attachment. Sta = CC(C)C[C@H](N)[C@@H](O)CC(=O)O; pNA = O=[N+]([O-])c1ccc(N*)cc1; Suc = O=C(CCC(=O)[*:2])[*:1]; Isovaleryl = CC(C)CC(=O)*; Cbz = O=C(OCc1ccccc1)*
System: P. gingivalis DPP-7
Test: Kinetic analysis of p-nitroanilide substrate cleavage by DPP-7
Assay type: biochemical, Porphyromonas gingivalis
Details: 0.2 M HEPES, pH 7.8, 37° C.
Protocol: Kinetic Analysis—Routinely, the dipeptidylpeptidase amidolytic activity was measured with H-Ala-Phe-pNA (1 mM) in 0.2 M HEPES, pH 7.8 at 37° C. The reaction was followed for specific time intervals in a thermostated ELISA reader (SpectraMax, Applied Biosystem) and the release of p-nitroaniline was monitored at 405 nm. Other p-nitroanilide substrates were used in the same manner. For inhibition studies, the enzyme was first preincubated with an inhibitor for 15 minutes at 37° C., substrate added, and residual activity recorded. The initial steady-state velocity (v0) was determined by continuous assay for the range of substrate concentrations (100 nM to 1 mM). Km and Vmax were determined by hyperbolic regression of the kinetic data using the software package Hyper Version 1.02 obtained from Dr. J. S. Easterby (University of Liverpool, UK).
Substrate Specificity—Among several chromogenic substrates tested, only those with an aliphatic or an aromatic side chain residues in the second, penultimate position were rapidly hydrolyzed by DPP-7 (Table 2).

Row | Compound | Km [µM] | Vmax
1 | NCC(=O)NC(Cc1ccccc1)C(=O)Nc1ccc([N+](=O)[O-])cc1 (stereo not drawn) [H-Gly-Phe-pNA] | 256 | 54.54
2 | CC(N)C(=O)NC(C)C(=O)Nc1ccc([N+](=O)[O-])cc1.Cl (stereo not drawn) [H-Ala-Ala-pNA] (H-Ala-Ala-pNA; configuration not given here) | 313 | 129.65
3 | C[C@H](N)C(=O)N[C@@H](Cc1ccccc1)C(=O)Nc1ccc([N+](=O)[O-])cc1 [H-Ala-Phe-pNA] | 441 | 170.06

Same assay, conditions: p-nitroanilide substrates

Row | Compound | hydrolysis of chromogenic substrate by DPP-7
4 | NCC(=O)NCC(=O)Nc1ccc([N+](=O)[O-])cc1 [H-Gly-Gly-pNA] (H-Gly-Gly-pNA) | none of these was hydrolysed
5 | N=C(N)NCCC[C@H](NC(=O)[C@H](CCCCN)NC(=O)OCc1ccccc1)C(=O)Nc1ccc([N+](=O)[O-])cc1 [Z-Lys-Arg-pNA] (Cbz-Lys-Arg-pNA) | none of these was hydrolysed
6 | NCC(=O)Nc1ccc([N+](=O)[O-])cc1 [H-Gly-pNA] | none of these was hydrolysed
7 | C[C@H](N)C(=O)Nc1ccc([N+](=O)[O-])cc1 [H-Ala-pNA] | none of these was hydrolysed
8 | NCCCC[C@H](NC(=O)CN)C(=O)Nc1ccc([N+](=O)[O-])cc1 [H-Gly-Lys-pNA] (H-Gly-Lys-pNA) | none of these was hydrolysed
9 | C[C@H](NC(=O)OCc1ccccc1)C(=O)N[C@@H](C)C(=O)Nc1ccc([N+](=O)[O-])cc1 [Z-Ala-Ala-pNA] (Cbz-Ala-Ala-pNA) | none of these was hydrolysed
10 | C[C@H](N)C(=O)N[C@@H](C)C(=O)N[C@@H](Cc1ccccc1)C(=O)Nc1ccc([N+](=O)[O-])cc1 [H-Ala-Ala-Phe-pNA] (H-Ala-Ala-Phe-pNA) | none of these was hydrolysed
11 | CC[C@H](C)[C@H](N)C(=O)Nc1ccc([N+](=O)[O-])cc1 [H-Ile-pNA] | none of these was hydrolysed
12 | Br.Br.NCCCC[C@H](N)C(=O)Nc1ccc([N+](=O)[O-])cc1 [H-Lys-pNA] | none of these was hydrolysed
13 | CC(C)C[C@H](N)C(=O)Nc1ccc([N+](=O)[O-])cc1 [H-Leu-pNA] | none of these was hydrolysed
14 | C[C@H](NC(=O)CCC(=O)O)C(=O)N[C@@H](C)C(=O)N1CCC[C@H]1C(=O)N[C@@H](CCC(=O)O)C(=O)Nc1ccc([N+](=O)[O-])cc1 [N-suc-Ala-Ala-Pro-Glu-pNA] (Suc-AAPE-pNA) | none of these was hydrolysed
15 | NCCCC[C@H](NC(=O)OCc1ccccc1)C(=O)Nc1ccc([N+](=O)[O-])cc1 [Z-Lys-pNA] | none of these was hydrolysed
16 | NC(N)=NCCC[C@H](NC(=O)[C@H](Cc1ccccc1)NC(=O)OCc1ccccc1)C(=O)Nc1ccc([N+](=O)[O-])cc1 [Z-Phe-Arg-pNA] (Cbz-Phe-Arg-pNA) | none of these was hydrolysed
17 | O=C(O)CC[C@H](NC(=O)OCc1ccccc1)C(=O)N[C@@H](CCC(=O)O)C(=O)Nc1ccc([N+](=O)[O-])cc1 [Z-Glu-Glu-pNA] (Cbz-Glu-Glu-pNA) | none of these was hydrolysed
18 | CC(C)C[C@H](NC(=O)[C@@H]1CCCN1C(=O)[C@H](C)NC(=O)[C@H](C)NC(=O)CCC(=O)O)C(=O)Nc1ccc([N+](=O)[O-])cc1 [N-suc-Ala-Ala-Pro-Leu-pNA] (Suc-AAPL-pNA) | none of these was hydrolysed
19 | C[C@H](N)C(=O)N[C@@H](Cc1ccccc1)C(=O)N1CCC[C@H]1C(=O)Nc1ccc([N+](=O)[O-])cc1 [H-Ala-Phe-Pro-pNA] (H-Ala-Phe-Pro-pNA) | none of these was hydrolysed

Row | Compound | hydrolysis of chromogenic substrate by DPP-7
20 | C[C@H](N)C(=O)NCC(=O)N[C@@H](CCCNC(=N)N)C(=O)Nc1ccc([N+](=O)[O-])cc1 [H-Ala-Gly-Arg-pNA] (H-Ala-Gly-Arg-pNA) | none of these was hydrolysed
21 | N-met-Ala-Pro-Val-pNA | none of these was hydrolysed
22 | CC(C)C[C@H](NC(=O)OCc1ccccc1)C(=O)N[C@@H](CC(C)C)C(=O)N[C@@H](CCC(=O)O)C(=O)Nc1ccc([N+](=O)[O-])cc1 [Z-Leu-Leu-Glu-pNA] (Cbz-Leu-Leu-Glu-pNA) | none of these was hydrolysed
23 | CC(C)[C@H](NC(=O)[C@H](Cc1ccccc1)NC(=O)OCc1ccccc1)C(=O)N[C@@H](CCCNC(=N)N)C(=O)Nc1ccc([N+](=O)[O-])cc1 [Z-Phe-Val-Arg-pNA] (Cbz-Phe-Val-Arg-pNA) | none of these was hydrolysed
24 | N=C(N)NCCC[C@H](NC(=O)OCc1ccccc1)C(=O)Nc1ccc([N+](=O)[O-])cc1 [Z-Arg-pNA] | none of these was hydrolysed
25 | C[C@H](NC(=O)CCC(=O)O)C(=O)N[C@@H](C)C(=O)Nc1ccc([N+](=O)[O-])cc1 [N-suc-Ala-Ala-pNA] (Suc-Ala-Ala-pNA) | none of these was hydrolysed
26 | NCC(=O)N[C@@H](CCC(=O)O)C(=O)Nc1ccc([N+](=O)[O-])cc1 [H-Gly-Glu-pNA] (H-Gly-Glu-pNA) | none of these was hydrolysed
27 | NCC(=O)N[C@@H](CCCN=C(N)N)C(=O)Nc1ccc([N+](=O)[O-])cc1 [H-Gly-Arg-pNA] (H-Gly-Arg-pNA) | none of these was hydrolysed
28 | C[C@H](N)C(=O)NCC(=O)Nc1ccc([N+](=O)[O-])cc1 [H-Ala-Gly-pNA] (H-Ala-Gly-pNA) | none of these was hydrolysed
29 | CC(C)C[C@H](N)C(=O)N[C@H](C(=O)N[C@@H](CCCNC(=N)N)C(=O)Nc1ccc([N+](=O)[O-])cc1)[C@@H](C)O [H-Leu-Thr-Arg-pNA] (H-Leu-Thr-Arg-pNA) | none of these was hydrolysed
30 | NC(N)=NCCCC(NC(=O)c1ccccc1)C(=O)Nc1ccc([N+](=O)[O-])cc1 (racemic) [Nα-benzoyl-DL-arginine-pNA] | none of these was hydrolysed
31 | C[C@H](N)C(=O)N1CCC[C@H]1C(=O)Nc1ccc([N+](=O)[O-])cc1 [H-Ala-Pro-pNA] (H-Ala-Pro-pNA) | none of these was hydrolysed
32 | N[C@@H](Cc1ccccc1)C(=O)Nc1ccc([N+](=O)[O-])cc1 [H-Phe-pNA] | none of these was hydrolysed
33 | CC(C)[C@H](NC(=O)[C@H](C)NC(=O)[C@H](C)NC(=O)CCC(=O)O)C(=O)N[C@@H](C)C(=O)Nc1ccc([N+](=O)[O-])cc1 [N-suc-Ala-Ala-Val-Ala-pNA] (Suc-AAVA-pNA) | none of these was hydrolysed
34 | NCCCC[C@H](NC(=O)[C@H](Cc1ccc(O)cc1)NC(=O)OCc1ccccc1)C(=O)N[C@@H](CCCN=C(N)N)C(=O)Nc1ccc([N+](=O)[O-])cc1 [Z-Tyr-Lys-Arg-pNA] (Cbz-Tyr-Lys-Arg-pNA) | none of these was hydrolysed

System: P. gingivalis DPP-7
Test: not given
Assay type: biochemical, Porphyromonas gingivalis
Details: not given

Row | Compound | % of residual activity | inactivation of / influence on DPP-7 activity (in words)
35 | CC(=O)N[C@@H](CC(C)C)C(=O)N[C@@H](CC(C)C)C(=O)N[C@H](C=O)CCCNC(=N)N [Leupeptin] | 107% | 
36 | Aprotinin | 128% | 
37 | Cl.NCCc1ccc(S(=O)(=O)F)cc1 [PEFABLOCK, 4-(2-aminoethyl)-benzenesulfonyl fluoride hydrochloride] | 1% | inactivated
38 | NC(N)=NCCC[C@H](N)C(=O)NCC(=O)O [Arg-Gly] (H-Arg-Gly-OH) | 84% | 
39 | O=c1oc(Cl)c(Cl)c2ccccc12 [3,4-dichloroisocoumarin] | 0% | inactivated
40 | CC(C)CC(=O)N[C@H](C(=O)N[C@H](C(=O)N[C@@H](CC(C)C)[C@@H](O)CC(=O)N[C@@H](C)C(=O)N[C@@H](CC(C)C)[C@@H](O)CC(=O)O)C(C)C)C(C)C [Pepstatin] (Isovaleryl-VV[Sta]A[Sta]-OH) | 127% | 
41 | O=C(O)CI [Iodoacetic acid] | 102% | not
42 | α1-proteinase inhibitor: human plasma inhibitor |  | did not effect enzyme activity
43 | N[C@@H](CS)C(=O)O [Cysteine] | 90% | 
44 | NC(N)=NCCC[C@H](N)C(=O)N[C@@H](Cc1ccccc1)C(=O)O [Arg-Phe] | 69% | 
45 | C[C@H](NC(=O)CN)C(=O)O [Gly-Ala] (H-Gly-Ala-OH) | 102% | 
46 | c1cnc2c(c1)ccc1cccnc12 [1,10-orthophenanthroline] | 98% | did not influence its activity
47 | O=C(O)CN(CCN(CC(=O)O)CC(=O)O)CC(=O)O [EDTA] | 90% | did not influence its activity
48 | C[C@H](N)C(=O)NCC(=O)O [Ala-Gly] (H-Ala-Gly-OH) | 96% | 
49 | α2-macroglobulin: human plasma inhibitor |  | did not effect enzyme activity
50 | NCCCC[C@H](N)C(=O)NCC(=O)O [Lys-Gly] (H-Lys-Gly-OH) | 96% | 
51 | Triton X-100 | 144% and 103% and 94% | not sensitive to inactivation
52 | CCCCCCCCCCCCOS(=O)(=O)[O-].[Na+] [SDS] |  | not sensitive to inactivation

From patent US6864363B2 (priority 2000, dated 2005)
